According to US10174036B2, “Substituted pyrazoles as JAK inhibitors” (WUXI FORTUNE PHARMACEUTICAL CO., LTD, priority 2015, dated 2019):

How the values were obtained:
Assay type in all cases: biochemical
JAK1 = molecular target: T1, JAK1 (Homo sapiens, UniProt P23458); test: Test for in vitro activity of JAK1 kinase (LANCE Ultra ULight-JAK-1 peptide); settings: selectivity ratio JAK1 versus JAK2; class symbol
T1 construct: purchased Life technology
Protocol: (§1) Test for In Vitro Activity of Jak1, Jak2, and Jak3 Kinase
(§2) Recombinant human […] of JAK1, JAK2 and JAK3 were purchased from Life technology. LANCE Ultra ULight™-JAK-1 (Tyr1023) peptide and LANCE Eu-W1024 Anti-phosphotyrosine (PT66) were purchased from PerkinElmer. Multimode ELISA, Envison(PerkinElmer) reader was used.
The reaction was carried out at room temperature for 90 min and the reaction system was 10 ul.
(§3) Determination for Reaction
(§4) 10 ul detection reagent was added to reaction plate, wherein the final concentration of LANCE Eu-W1024 Anti-phosphotyrosine (PT66) was 2 nM, the final concentration of EDTA was […], incubated at room temperature for 60 min, with Envison reader.
(§5) The reading was converted to inhibition ratio (%) by the following formula: the inhibition ratio (%)=([…])/(Max−Min)×100%.

JAK3 = molecular target: T2, JAK3 (Homo sapiens, UniProt P52333); test: Test for in vitro activity of JAK3 kinase (LANCE Ultra ULight-JAK-1 peptide); settings: selectivity ratio JAK3 versus JAK2; class symbol
T2 construct: purchased Life technology
T2 sequence (P52333 1-1124): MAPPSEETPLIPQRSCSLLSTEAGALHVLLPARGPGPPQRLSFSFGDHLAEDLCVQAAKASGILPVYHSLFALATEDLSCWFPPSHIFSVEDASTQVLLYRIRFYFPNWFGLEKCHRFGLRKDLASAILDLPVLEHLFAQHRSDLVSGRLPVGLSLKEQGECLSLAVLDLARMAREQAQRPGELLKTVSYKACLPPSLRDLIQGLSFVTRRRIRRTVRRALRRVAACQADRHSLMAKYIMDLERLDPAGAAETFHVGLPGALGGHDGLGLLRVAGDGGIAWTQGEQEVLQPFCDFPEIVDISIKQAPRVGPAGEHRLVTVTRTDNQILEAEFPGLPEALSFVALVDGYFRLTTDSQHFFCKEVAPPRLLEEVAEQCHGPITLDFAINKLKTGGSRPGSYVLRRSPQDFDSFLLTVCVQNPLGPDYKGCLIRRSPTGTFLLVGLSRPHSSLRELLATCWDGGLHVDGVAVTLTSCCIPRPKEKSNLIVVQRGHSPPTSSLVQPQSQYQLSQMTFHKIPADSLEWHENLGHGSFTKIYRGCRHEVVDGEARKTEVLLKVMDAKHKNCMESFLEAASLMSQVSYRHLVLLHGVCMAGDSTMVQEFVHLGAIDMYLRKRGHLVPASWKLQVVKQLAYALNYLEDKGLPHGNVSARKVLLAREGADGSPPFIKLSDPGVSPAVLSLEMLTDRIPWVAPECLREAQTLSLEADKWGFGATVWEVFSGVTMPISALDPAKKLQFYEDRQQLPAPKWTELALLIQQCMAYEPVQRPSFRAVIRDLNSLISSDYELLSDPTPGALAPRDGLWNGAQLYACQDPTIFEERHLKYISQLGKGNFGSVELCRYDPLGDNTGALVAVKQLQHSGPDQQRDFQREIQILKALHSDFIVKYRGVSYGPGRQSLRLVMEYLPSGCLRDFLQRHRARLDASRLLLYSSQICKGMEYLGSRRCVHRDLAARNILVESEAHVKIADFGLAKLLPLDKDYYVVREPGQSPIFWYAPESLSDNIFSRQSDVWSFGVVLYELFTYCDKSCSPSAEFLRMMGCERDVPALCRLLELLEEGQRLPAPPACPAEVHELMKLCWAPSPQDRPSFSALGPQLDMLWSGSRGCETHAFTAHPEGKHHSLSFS
Protocol: as §1, §2
0.05 nM of JAK3 Protein kinase, 50 nM of LANCE Ultra ULight™-JAK-1(Tyr1023) peptide, 4 uM of ATP, 50 mM of HEPES (pH 7.5), 10 mM of MgCl2, 1 mM of EGTA, 2 mM of DTT, 0.01% BRIJ-35. […] The reaction was carried out at room temperature for 90 min and the reaction system was 10 ul.
as §3, §4, §5

JAK2 = molecular target: T3, JAK2 (Homo sapiens, UniProt O60674); test: Test for in vitro activity of JAK2 kinase (LANCE Ultra ULight-JAK-1 peptide); settings: recombinant human JAK2, 12 uM ATP, 60 min; class symbol
T3 construct: purchased Life technology
T3 sequence (O60674 whole entry): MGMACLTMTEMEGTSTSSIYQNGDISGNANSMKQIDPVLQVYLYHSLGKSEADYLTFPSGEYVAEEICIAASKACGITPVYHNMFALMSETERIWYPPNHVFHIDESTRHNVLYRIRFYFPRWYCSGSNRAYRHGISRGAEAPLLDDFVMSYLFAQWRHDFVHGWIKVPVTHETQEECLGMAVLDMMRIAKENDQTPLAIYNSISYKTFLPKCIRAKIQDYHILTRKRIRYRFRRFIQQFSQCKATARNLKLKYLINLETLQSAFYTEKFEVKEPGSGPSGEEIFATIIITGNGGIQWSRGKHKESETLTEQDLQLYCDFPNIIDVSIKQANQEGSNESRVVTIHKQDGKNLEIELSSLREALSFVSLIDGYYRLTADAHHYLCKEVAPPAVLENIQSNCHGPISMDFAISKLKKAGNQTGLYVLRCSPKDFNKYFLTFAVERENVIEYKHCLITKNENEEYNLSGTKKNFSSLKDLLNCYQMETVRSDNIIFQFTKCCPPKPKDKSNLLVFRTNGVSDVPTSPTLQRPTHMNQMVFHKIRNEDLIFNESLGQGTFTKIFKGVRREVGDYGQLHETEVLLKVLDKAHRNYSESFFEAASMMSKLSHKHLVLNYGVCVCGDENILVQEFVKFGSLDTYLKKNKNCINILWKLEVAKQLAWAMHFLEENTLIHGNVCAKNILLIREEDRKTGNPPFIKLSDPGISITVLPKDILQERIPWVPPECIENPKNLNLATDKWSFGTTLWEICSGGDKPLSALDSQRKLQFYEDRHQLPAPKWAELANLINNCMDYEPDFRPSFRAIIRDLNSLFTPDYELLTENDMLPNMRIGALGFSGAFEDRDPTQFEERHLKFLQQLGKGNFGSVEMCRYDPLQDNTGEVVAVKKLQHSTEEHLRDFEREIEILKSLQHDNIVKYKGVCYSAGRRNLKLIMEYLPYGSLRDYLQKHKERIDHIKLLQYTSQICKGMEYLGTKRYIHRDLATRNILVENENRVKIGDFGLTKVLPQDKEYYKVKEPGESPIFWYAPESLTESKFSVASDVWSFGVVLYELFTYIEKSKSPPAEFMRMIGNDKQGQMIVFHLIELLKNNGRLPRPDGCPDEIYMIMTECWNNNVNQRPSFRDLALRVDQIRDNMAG
Protocol: as §1, §2
The reaction was carried out at room temperature for 60 min and the reaction system was 10 ul.
as §3, §4, §5

T1 sequence (P23458 whole entry): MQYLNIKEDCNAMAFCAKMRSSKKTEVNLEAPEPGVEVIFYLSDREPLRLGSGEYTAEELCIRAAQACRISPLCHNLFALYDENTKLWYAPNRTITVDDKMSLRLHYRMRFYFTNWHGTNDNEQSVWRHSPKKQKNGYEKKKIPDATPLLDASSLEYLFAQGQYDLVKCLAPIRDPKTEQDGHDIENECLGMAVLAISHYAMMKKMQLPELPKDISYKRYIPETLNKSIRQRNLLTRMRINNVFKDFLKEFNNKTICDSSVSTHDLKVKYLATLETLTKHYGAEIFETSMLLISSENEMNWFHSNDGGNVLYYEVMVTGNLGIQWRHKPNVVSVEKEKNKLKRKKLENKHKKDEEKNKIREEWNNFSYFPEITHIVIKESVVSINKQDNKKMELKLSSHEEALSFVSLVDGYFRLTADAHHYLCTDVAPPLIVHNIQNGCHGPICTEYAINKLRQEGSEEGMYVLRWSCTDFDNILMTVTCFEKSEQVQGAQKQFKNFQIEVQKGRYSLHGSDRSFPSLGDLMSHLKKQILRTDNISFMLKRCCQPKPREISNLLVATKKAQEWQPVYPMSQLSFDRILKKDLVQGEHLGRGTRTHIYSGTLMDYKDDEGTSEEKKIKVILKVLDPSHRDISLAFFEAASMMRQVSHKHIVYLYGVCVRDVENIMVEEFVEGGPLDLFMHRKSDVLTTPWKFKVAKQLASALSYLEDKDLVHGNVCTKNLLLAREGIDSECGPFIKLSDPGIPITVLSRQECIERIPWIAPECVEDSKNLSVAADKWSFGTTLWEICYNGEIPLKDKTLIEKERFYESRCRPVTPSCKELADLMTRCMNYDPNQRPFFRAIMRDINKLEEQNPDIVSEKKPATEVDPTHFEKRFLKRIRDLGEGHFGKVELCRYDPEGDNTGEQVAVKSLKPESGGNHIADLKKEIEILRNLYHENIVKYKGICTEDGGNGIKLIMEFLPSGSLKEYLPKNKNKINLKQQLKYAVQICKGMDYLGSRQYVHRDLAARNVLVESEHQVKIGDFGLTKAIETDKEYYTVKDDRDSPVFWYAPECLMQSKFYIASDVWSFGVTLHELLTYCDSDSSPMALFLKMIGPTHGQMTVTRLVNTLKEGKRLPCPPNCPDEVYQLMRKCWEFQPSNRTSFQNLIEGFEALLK

N#CCC1(n2cc(-c3cccc4nc(NC(=O)C5CC5)nn34)cn2)CNC1 [WX00, N-[5-[1-[3-(cyanomethyl)azetidine-3-yl]pyrazole-4-yl]-[1,2,4]triazolo[1,5-a]pyridin-2-yl] cyclopropane carboxamide]
JAK1/JAK2 (times) (JAK1): F1 (1 ≤ F1 ≤ 5)
JAK3/JAK2 (times) (JAK3): F4 (25 < F4 ≤ 100)
IC50 (JAK2): 10 to 100 nM

CCS(=O)(=O)N1CC(CC#N)(n2cc(-c3nccc4nc(NC(=O)C5CC5)nn34)cn2)C1 [WX01, N-[5-[1-[3-(cyanomethyl)-1-ethylsulfonylazetidine-3-yl]pyrazole-4-yl]-[1,2,4]triazolo[1,5-c]pyrimidin-2-yl]cyclopropanecarboxamide]
JAK1/JAK2 (times) (JAK1): F2 (5 < F2 ≤ 10)
JAK3/JAK2 (times) (JAK3): F3 (10 < F3 ≤ 25)
IC50 (JAK2): 10 to 100 nM

N#CCC1(n2cc(-c3nccc4nc(NC(=O)C5CC5)nn34)cn2)CN(S(=O)(=O)C(F)(F)F)C1 [WX02, N-[5-[1-[3-(cyanomethyl)-1-(trifluoromethylsulfonyl)azetidine-3-yl]pyrazole-4-yl]-[1,2,4]triazolo[1,5-c]pyrimidin-2-yl]cyclopropanecarboxamide]
JAK1/JAK2 (times) (JAK1): F1 (1 ≤ F1 ≤ 5)
JAK3/JAK2 (times) (JAK3): F3 (10 < F3 ≤ 25)
IC50 (JAK2): < 10 nM

N#CCC1(n2cc(-c3nccc4nc(NC(=O)C5CC5)nn34)cn2)CN(S(=O)(=O)C2CC2)C1 [WX03, N-[5-[1-[3-(cyanomethyl)-1-cyclopropylsulfonyl-azetidine-3-yl]pyrazole-4-yl]-[1,2,4]triazolo[1,5-c]pyrimidin-2-yl]cyclopropanecarboxamide]
JAK1/JAK2 (times) (JAK1): F2 (5 < F2 ≤ 10)
JAK3/JAK2 (times) (JAK3): F3 (10 < F3 ≤ 25)
IC50 (JAK2): 10 to 100 nM

CS(=O)(=O)N1CC(CC#N)(n2cc(-c3nccc4nc(N)nn34)cn2)C1 [WX04, 2-[3-[4-(2-amino-[1,2,4]triazolo[1,5-c]pyrimidin-5-yl)pyrazole-1-yl]-1-methylsulfonyl-cyclobutylamine-3-yl] acetonitrile]
JAK1/JAK2 (times) (JAK1): F1 (1 ≤ F1 ≤ 5)
JAK3/JAK2 (times) (JAK3): F3 (10 < F3 ≤ 25)
IC50 (JAK2): 10 to 100 nM

N#CCC1(n2cc(-c3nccc4nc(N)nn34)cn2)CN(S(=O)(=O)C(F)(F)F)C1 [WX05, 2-[3-[4-(2-amino-[1,2,4]triazolo[1,5-c]pyrimidin-5-yl)pyrazole-1-yl]-1-(trifluoromethylsulfonyl)cyclobutylamine-3-yl]acetonitrile]
JAK1/JAK2 (times) (JAK1): F1 (1 ≤ F1 ≤ 5)
JAK3/JAK2 (times) (JAK3): F3 (10 < F3 ≤ 25)
IC50 (JAK2): 10 to 100 nM

N#CCC1(n2cc(-c3nccc4nc(NC(=O)C5CNC5)nn34)cn2)CN(S(=O)(=O)C(F)(F)F)C1 [WX06, N-[5-[1-[3-(cyanomethyl)-1-(trifluoromethylsulfonyl)cyclobutylamine-3-yl]pyrazole-4-yl]-[1,2,4]triazolo[1,5-c]pyrimidin-2-yl]cyclobutylamine-3-formamide]
JAK1/JAK2 (times) (JAK1): F1 (1 ≤ F1 ≤ 5)
JAK3/JAK2 (times) (JAK3): F3 (10 < F3 ≤ 25)
IC50 (JAK2): 10 to 100 nM

N#CCC1(n2cc(-c3nccc4nc(NC(=O)C5CC(O)C5)nn34)cn2)CN(S(=O)(=O)C(F)(F)F)C1 (stereo not drawn) [WX07, N-[5-[1-[3-(cyanomethyl)-1-(trifluoromethylsulfonyl)cyclobutylamine-3-yl]pyrazole-4-yl]-[1,2,4]triazolo[1,5-c]pyrimidin-2-yl]-3-hydroxy-cyclobutane formamide]
JAK1/JAK2 (times) (JAK1): F2 (5 < F2 ≤ 10)
JAK3/JAK2 (times) (JAK3): F4 (25 < F4 ≤ 100)
IC50 (JAK2): 10 to 100 nM

N#CCC1(n2cc(-c3cccc4nc(NC(=O)C5CC5)nn34)cn2)CN(S(=O)(=O)C2CC2)C1 [WX08, N-(5-(1-(3-(cyanomethyl)-1-(cyclopropylsulfonyl)azetidine-3-yl)-1H-pyrazole-4-yl)-[1,2,4]triazolo[1,5-a]pyridin-2-yl)cyclopropane formamide]
JAK1/JAK2 (times) (JAK1): F1 (1 ≤ F1 ≤ 5)
JAK3/JAK2 (times) (JAK3): F4 (25 < F4 ≤ 100)
IC50 (JAK2): < 10 nM

N#CCC1(n2cc(-c3cccc4nc(NC(=O)C5CC5)nn34)cn2)CN(S(=O)(=O)C(F)(F)F)C1 [WX09, N-(5-(1-(3-(cyanomethyl)-1-(trifluoromethylsulfonyl)azetidine-3-yl)-1H-pyrazole-4-yl)-[1,2,4]triazolo[1,5-a]pyridin-2-yl)cyclopropane formamide]
JAK1/JAK2 (times) (JAK1): F1 (1 ≤ F1 ≤ 5)
JAK3/JAK2 (times) (JAK3): F4 (25 < F4 ≤ 100)
IC50 (JAK2): < 10 nM

COCC(=O)N1CC(CC#N)(n2cc(-c3nccc4nc(NC(=O)C5CC5)nn34)cn2)C1 [WX10, N-[5-[1-[3-(cyanomethyl)-1-(2-methoxyacetyl)azetidine-3-]pyrazole-4-]-[1,2,4]triazoloe[1,5-c]pyrimidine2-] cyclopropane carboxamide]
JAK1/JAK2 (times) (JAK1): F1 (1 ≤ F1 ≤ 5)
JAK3/JAK2 (times) (JAK3): F1 (1 ≤ F1 ≤ 5)
IC50 (JAK2): 100 to 1000 nM

N#CCC1(n2cc(-c3nccc4nc(NC(=O)C5CC5)nn34)cn2)CN(C(=O)C2CC2)C1 [WX11, N-[5-[1-[3-(cyanomethyl)-1-(cyclopropylcarbonyl)azetidine-3-]pyrazole-4-]-[1,2,4]triazoloe[1,5-c]pyrimidine2-] cyclopropane carboxamide]
JAK1/JAK2 (times) (JAK1): F2 (5 < F2 ≤ 10)
JAK3/JAK2 (times) (JAK3): F3 (10 < F3 ≤ 25)
IC50 (JAK2): 100 to 1000 nM

CS(=O)(=O)N1CC(CC#N)(n2cc(-c3nccc4nc(NC(=O)C5CC5)nn34)cn2)C1 [WX12, N-[5-[1-[3-(cyanomethyl)-1-methanesulfonyl-azetidine-3-]pyrazole-4-]-[1,2,4]triazoloe[1,5-c]pyrimidine2-] cyclopropane carboxamide]
JAK1/JAK2 (times) (JAK1): F2 (5 < F2 ≤ 10)
JAK3/JAK2 (times) (JAK3): F3 (10 < F3 ≤ 25)
IC50 (JAK2): 10 to 100 nM

N#CCC1(n2cc(-c3nccc4nc(NC(=O)C5CC5)nn34)cn2)CN(S(=O)(=O)C(F)F)C1 [WX13, N-[5-[1-[3-(cyanomethyl)-1-(difluoromethylsulfonyl)-azetidine-3-]pyrazole-4-]-[1,2,4]triazoloe[1,5-c]pyrimidine2-]cyclopropane carboxamide]
JAK1/JAK2 (times) (JAK1): F3 (10 < F3 ≤ 25)
JAK3/JAK2 (times) (JAK3): F4 (25 < F4 ≤ 100)
IC50 (JAK2): < 10 nM

N#CCC1(n2cc(-c3cccc4nc(NC(=O)C5CC5)nn34)cn2)CN(S(=O)(=O)C(F)F)C1 [WX14, N-[5-[1-[3-(cyanomethyl)-1-(difluoromethylsulfonyl)azetidine-3-]pyrazole-4-]-[1,2,4]triazolo[1,5-c]pyridin-2-]cyclopropyl carboxamide]
JAK1/JAK2 (times) (JAK1): F2 (5 < F2 ≤ 10)
JAK3/JAK2 (times) (JAK3): F4 (25 < F4 ≤ 100)
IC50 (JAK2): < 10 nM

CS(=O)(=O)N1CC(CC#N)(n2cc(-c3cccc4nc(NC(=O)C5CC5)nn34)cn2)C1 [WX15]
JAK1/JAK2 (times) (JAK1): F1 (1 ≤ F1 ≤ 5)
JAK3/JAK2 (times) (JAK3): F4 (25 < F4 ≤ 100)
IC50 (JAK2): < 10 nM
